The values below come from patent publication US20260263529A1, “BIOENGINEERED COLON-SPECIFIC IMUNE NICHE FOR THE TREATMENT OF ULCERATIVE COLITIS” (THE BOARD OF REGENTS OF THE UNIVERSITY OF TEXAS SYSTEM, priority 2023, published 2026).

Data set [1] concerns B16OVA tumor-bearing mice. Description: Copanlisib-triggered colitis in B16OVA tumor model. Type of data set: in vivo, C57BL/6 mice. The conditions noted are these: copanlisib 25 mg/kg i.p. The method, then: B16F10, B16OVA, and MC38 xenograft tumors were inoculated into healthy C57BL/6 mice (female, 7 to 8 weeks old) through s.c. inoculation of B16F10 cells (2.5×10^5 cells/mouse) in serum-free DMEM, B16OVA cells (2.5×10^5 cells/mouse) in serum-free RPMI 1640 culture medium, and MC38 cells (5×10^5 cells/mouse) in serum-free DMEM in the right flank. Tumor volume (volume=0.5×a×b^2, where a is the large diameter and b is the small diameter) was measured every 2 to 3 days from day 7 after the tumor was inoculated.
For the COP-triggered colitis study in the B16OVA tumor model, COP treatment was provided by i.p. administration of COP (25 mg/kg, in saline) at days 6, 8, 10, 12, 14, 16 and 18 after tumor inoculation. Colitis was induced by feeding the tumor-bearing mice 3% DSS at day 14 for 4 days. For the colitis treatment group, mice received a single s.c. treatment with COMBO COIN at day 18. Bodyweight and DAI scores were monitored every 2 or 3 days. Mice were euthanized at 22 days post-inoculation. Colons were preserved by trained veterinary technicians at the UTSW ARC Diagnostic Laboratory without prior knowledge of the treatment. The lengths of preserved colons were measured and fixed with 10% NBF for 24 h. Fixed specimens were kept in 70% ethanol and transferred to the UTSW Histo Pathology Core for histological study (H&E, Ki67 and TUNEL stains).

The nature of data set [2]: Aqueous electrophoresis (zeta potential). Format: physicochemical. As to conditions: dispersed in 1X PBS, diluted 100 times with deionized water, pH 6.8-8.0, 25° C. The method, then:
Sphere-equivalent intensity-average diameters (Dh) and zeta potentials of all NF samples were measured in a Malvern Zetasizer Pro instrument.

Turning to `COc1c(OCCCN2CCOCC2)ccc2c1N=C(NC(=O)c1cnc(N)nc1)N1CCN=C21` [Copanlisib, copanlisib], in data set [1], the B16OVA tumor growth entry is recorded as “effectively inhibited B16OVA tumor growth” and the “colitis symptoms induced by cancer treatment” value was “induced mild colitis symptoms”.

For ACESPLKRQCGGG [TGF-β1 mimetic peptide], the Average zeta potential result in data set [2] was “+22.1 ± 3.1 mV”.
